Data taken from ChEMBL document CHEMBL5537177, “Discovery of Potent Antimalarial Type II Kinase Inhibitors with Selectivity over Human Kinases” (J Med Chem, 2024).
The source made the active and inactive calls. The rule behind the calls is not given here.

Tests used:
[1] = AUC (last) in mouse at 2 mg/kg, iv; type: ADME, organism-based; details: in vivo
[2] = Clearance in mouse at 2 mg/kg, iv; type: ADME, organism-based; details: in vivo
[3] = Clearance in mouse at 10 mg/kg, po; type: ADME, organism-based; details: in vivo
[4] = system: Plasmodium falciparum; assay: Antimalarial activity against Plasmodium falciparum harboring PI4K S1320L mutation assessed as reduction in parasitemia incubated for 72 hrs by SYBR green I dye based analysis; type: functional, organism-based
[5] = system: Plasmodium berghei; assay: Antimalarial activity against blood-stage Plasmodium berghei sporozoites expressing GFP-Luc SMcon infected in Swiss Webster mouse assessed as reduction in parasitemia at 15 mg/kg, iv pre-infected with mouse RBC containing Plasmodium berghei sporozoites followed by compound administration measured for 2 to 16 days post-infection by SYBR Green I dye based flow cytometry; type: functional, organism-based; details: Erythrocyte, time 2-16 day
[6] = system: Plasmodium falciparum; assay: Antimalarial activity against artemisinin/piperaquine-resistant synchronized early ring stage Plasmodium falciparum IPC 6261 (MRA-1284) clinical isolate assessed as decrease in parasite survival at ring stage at 10 times EC50 treated for 6 hrs followed by compound removal measured after 72 hrs by geimsa staining based microscopy; type: functional, organism-based
[7] = system: Plasmodium falciparum; assay: Antimalarial activity against patient-derived ring-stage Plasmodium falciparum clinical isolate from Tororo town of Uganda infected in O+ RBCs assessed as reduction in parasitemia incubated for 72 hrs by SYBR green I dye based analysis; type: functional, organism-based, RBC; details: Erythrocyte
[8] = system: Plasmodium falciparum; assay: Antimalarial activity against patient-derived ring-stage Plasmodium falciparum clinical isolate from Patongo town of Uganda infected in O+ RBCs assessed as reduction in parasitemia incubated for 72 hrs by SYBR green I dye based analysis; type: functional, organism-based, RBC; details: Erythrocyte
[9] = system: Plasmodium falciparum; assay: Antimalarial activity against synchronized Plasmodium falciparum Dd2 assessed as reduction in parasite growth at early asexual stage treated 26 hrs post-invasion measured after 72 hrs by SYBR green I dye based microscopy; type: functional, organism-based
[10] = system: Plasmodium falciparum; assay: microbe, parasite or virus in culture; details: Dd2, 72 h
Description: Antiplasmodial activity against asynchronous Plasmodium falciparum Dd2 assessed as parasite growth reduction incubated for 72 hrs by SYBR Green I dye based analysis

[11] = system: Plasmodium falciparum; assay: Antimalarial activity against artemisinin-resistant/piperaquine-sensitive synchronized early ring stage Plasmodium falciparum IPC 5202 (MRA-1240) clinical isolate assessed as decrease in parasite survival at ring stage at 10 times EC50 treated for 6 to 48 hrs followed by compound removal measured after 72 hrs by geimsa staining based microscopy; type: functional, organism-based
[12] = system: Plasmodium falciparum; assay: Antimalarial activity against artemisinin-sensitive synchronized early ring stage Plasmodium falciparum IPC 5188 (MRA-1239) clinical isolate assessed as decrease in parasite survival at ring stage at 10 times EC50 treated for 48 hrs followed by compound removal measured after 72 hrs by geimsa staining based microscopy; type: functional, organism-based
[13] = system: Plasmodium falciparum; assay: Antimalarial activity against synchronized Plasmodium falciparum Dd2 assessed as delay in rightward shift of YOYO-1 peak at 5 times EC50 treated 18 to 30 hrs post-invasion measured after 54 hrs post-invasion by flow cytometry; type: functional, organism-based; details: time 24-36 hrs
[14] = system: Plasmodium falciparum; assay: Antimalarial activity against patient-derived ring-stage Plasmodium falciparum clinical isolate from Busiu town of Uganda infected in O+ RBCs assessed as reduction in parasitemia incubated for 72 hrs by SYBR green I dye based analysis; type: functional, organism-based, RBC; details: Erythrocyte
[15] = system: Plasmodium falciparum; assay: Antimalarial activity against synchronized Plasmodium falciparum Dd2 assessed as absence of rightward shift of YOYO-1 peak at 5 times EC50 treated 6 hrs post-invasion measured after 54 hrs post-invasion by flow cytometry; type: functional, organism-based; details: time 48.0 hrs
[16] = system: Plasmodium falciparum; assay: Antimalarial activity against ring-stage Plasmodium falciparum 3D7 infected in O+ RBCs assessed as reduction in parasitemia incubated for 72 hrs by SYBR green I dye based analysis; type: functional, organism-based, RBC; details: 3D7, Erythrocyte
[17] = Metabolic stability in mouse liver microsomes assessed as half life; type: ADME, Liver cells
[18] = Oral bioavailability in mouse at 10 mg/kg; type: ADME, organism-based; details: in vivo
[19] = system: Plasmodium falciparum; assay: Antimalarial activity in blood-stage Plasmodium falciparum Dd2-B2 infected in human O+ erythrocytes assessed as minimum inoculum of resistance at 3 times […] measured for 50 days by blood smear analysis; type: functional; details: time 50 day
[20] = Tmax in mouse at 2 mg/kg, iv; type: ADME, organism-based; details: in vivo
[21] = system: Plasmodium falciparum; assay: Antimalarial activity in ring-stage Plasmodium falciparum Dd2-B2 infected in human O+ erythrocytes assessed as reduction in parasitemia incubated for 72 hrs by SYBR Green I/ MitoTracker Deep Red dye based flow cytometry; type: functional, organism-based; details: Dd2-B2, 72 h
[22] = system: Plasmodium falciparum; assay: Antimalarial activity against synchronized Plasmodium falciparum Dd2 assessed as parasite growth inhibition at ring stage at 5 times EC50 treated 6 hrs post-invasion measured after 54 hrs post-invasion by Geimsa staining based microscopy; type: functional, organism-based; details: time 48.0 hrs
[23] = system: Plasmodium falciparum; assay: Antimalarial activity against synchronized Plasmodium falciparum Dd2 assessed as malformation of parasites at 5 times EC50 treated 18 to 30 hrs post-invasion measured after 54 hrs post-invasion by Geimsa staining based microscopy; type: functional, organism-based; details: time 24-36 hrs
[24] = system: Plasmodium falciparum; assay: Resistance development in blood-stage Plasmodium falciparum Dd2-B2 assessed as drug irresistibility at 1 to 2 times EC50 measured till death; type: functional, organism-based
[25] = system: Plasmodium falciparum; assay: Antimalarial activity against synchronized Plasmodium falciparum Dd2 at 5 times EC50 treated 42 hrs post-invasion measured after 54 hrs post-invasion by YOYO-1 staining based flow cytometry; type: functional, organism-based; details: time 12.0 hrs
[26] = system: HepG2; assay: Cytotoxicity against human HepG2 cells assessed as reduction in cell viability incubated for 48 hrs by MTS assay; type: toxicity, cell-based; details: hepg2
[27] = system: Plasmodium falciparum; assay: Resistance index, ratio of EC50 for multidrug-resistant Plasmodium falciparum Dd2 at ring stage infected in A+ erythrocytes to EC50 for drug-sensitive Plasmodium falciparum 3D7 at ring stage infected in A+ erythrocytes; type: organism-based; details: human
[28] = system: Plasmodium falciparum; assay: Antimalarial activity against synchronized early ring stage Plasmodium falciparum 3D7 (MRA-152) clinical isolate assessed as decrease in parasite survival at ring stage at 10 times EC50 treated for 6 hrs followed by compound removal measured after 72 hrs by geimsa staining based microscopy; type: functional, organism-based
[29] = Metabolic stability in mouse liver microsomes assessed as intrinsic clearance; type: ADME, Liver cells
[30] = AUC (infinity) in mouse at 10 mg/kg, po; type: ADME, organism-based; details: in vivo
[31] = system: Plasmodium falciparum; assay: Antimalarial activity against synchronous blood-stage Plasmodium falciparum 3D7 assessed as parasite clearance time at 10 times EC50 treated every 24 hrs for 120 hrs followed by compound washout and subsequent addition of RBCs measured after 21 days by parasite reduction ratio assay; type: functional
[32] = system: Plasmodium falciparum; assay: microbe, parasite or virus in culture; details: Dd2, 72 h; remark: listed apart in the source
Description: Antimalarial activity against wild-type Plasmodium falciparum Dd2 assessed as reduction in parasitemia incubated for 72 hrs by SYBR green I dye based analysis

[33] = system: Plasmodium falciparum; assay: Antimalarial activity against Plasmodium falciparum harboring AcAS A597V mutation assessed as reduction in parasitemia incubated for 72 hrs by SYBR green I dye based analysis; type: functional, organism-based
[34] = system: Plasmodium berghei; assay: Antimalarial activity against […] Plasmodium berghei sporozoites expressing GFP-Luc SMcon infected in Swiss Webster mouse assessed as reduction in parasitemia at 15 mg/kg, iv pretreated for 6 hrs followed by parasite infection measured after 2 to 6 days post-infection by IVIS imaging analysis; type: functional, organism-based; details: time 2.25-6.25 day
[35] = system: Plasmodium falciparum; assay: Antimalarial activity against artemisinin/piperaquine-sensitive synchronized early ring stage Plasmodium falciparum IPC 5188 (MRA-1239) clinical isolate assessed as decrease in parasite survival at ring stage at 10 times EC50 treated for 6 to 48 hrs followed by compound removal measured after 72 hrs by geimsa staining based microscopy; type: functional, organism-based

## CCN1CCN(Cc2ccc(NC(=O)c3cc(Cl)cc(NC(=O)c4cncc(-c5cccs5)c4)c3)cc2C(F)(F)F)CC1
[1]
  AUC(0-t): 6860 ng·h/mL
[2]
  clearance: 4.3 mL/min/kg
[3]
  CL/F: 109 mL/min/kg
[4]
  EC50: 59.2 nM
[5]
  Activity: Active
[6]
  Activity: inactive
[7]
  EC50: 9.2 nM
[8]
  EC50: 9.2 nM
[9]
  EC50: 69.7 nM
[10]
  EC50: 80 nM
[11]
  EC50: 72.2 nM
[12]
  Activity: Active
[13]
  Activity: Active
[14]
  EC50: 9.2 nM
[15]
  Activity: Active
[16]
  EC50: 10.2 nM
[17]
  t1/2: 79.5 min
[18]
  bioavailability: 4.8%
[19]
  Activity: >7
[20]
  Tmax: 4.8 min
[21]
  EC50: 40.6 nM
[22]
  inhibition: Active
[23]
  Activity: Active
[24]
  Activity: Active
[25]
  Activity: Active
[26]
  EC50: 2590 nM
[27]
  Ratio EC50: 1.4
[28]
  Activity: inactive
[29]
  intrinsic clearance: 9 µL/min/mg
[30]
  AUC(0-inf): 1640 ng·h/mL
[31]
  T99.9%: < 32 h
[32]
  EC50: 51.2 nM
[33]
  EC50: 40.5 nM
[34]
  Activity: Active
[35]
  EC50: 73.7 nM
